From patent US4011330A, “Vincaminic acid amides” (Synthelabo, priority 1974, dated 1977) come the findings set out here.

Where two headings read alike, the source gives them in different places.

The nature of data set [1]: Solubility in water (remark in preparation example). Type of data set: physicochemical. The note with it: base.
The nature of data set [2]: Acute toxicity (LD50) in mice. The data set is classed as in vivo. The note with it: mouse, in vivo, mice, compounds tested in a solution containing ascorbic acid; for LD50 at 168 h: oral, mortality over 7 days. The procedure: (§1) The compounds were administered orally to mice of the CD1 strain. The mortality was recorded over 7 days and the 50% lethal doses (LD50) were determined graphically.
(§2) The toxicities on intraperitoneal and intravenous administration were determined in accordance with the method of Miller and Taniter (Proc. Soc. Exp. Biol. Med. 1944- vol 57, page 261).

For data set [3], the system named is mice of strain CD1. Nature of the data set: Anoxia test on mice under low (oxygen) pressure conditions. Type of data set: in vivo. The note with it: Mus musculus, ip, intraperitoneally 10 minutes before the test, 190 mm of mercury (5.25% of oxygen), read-out: MAD (mean active dose, the dose which increases the survival time by 100%). The method, then: Anoxia test on mice under low (oxygen) pressure conditions
Mice of strain CD1 are kept in an atmosphere depleted in oxygen, by producing a partial vacuum (190 mm of mercury, corresponding to 5.25% of oxygen).
The survival time of the animals is noted. This time is increased by agents capable of assisting tissue oxygenation and in particular cerebral oxygenation. The compounds studied are administered in several doses intraperitoneally 10 minutes before the test. The percentage increases in the survival time relative to the values obtained with control animals are calculated. The mean active dose (MAD), the dose which increases the survival time by 100%, is determined graphically.

The test system of data set [4] is mice of the CD1 strain. Nature of the data set: Acute toxicity (LD50) in mice. The data set is classed as in vivo. The procedure: as §1, §2
The mark [5] stands for this setting: ip, intraperitoneal, read-out: LD50 intraperitoneal.
[6] abbreviates: intravenous, read-out: LD50 intravenous.

Regarding `CCC12CCCN3CCc4c(n(c5ccccc45)C(C(=O)NC4CCCCC4)C1)C32` (stereo not shown) [S.L.D. 135, N-cyclohexyldesoxyvincaminamide], the water solubility entry in data set [1] was “water-insoluble”.
What is called LD50 is the dose at which mortality reaches 50%. Regarding `CCC12CCCN3CCc4c(n(c5ccccc45)C(C(N)=O)C1)C32` (stereo not shown) [SLC 156, Desoxyvincaminamide], the results for the LD50 in data set [2] (setting [5]) and in data set [2] (setting [6]) were 210 mg/kg and 109 mg/kg, respectively. In data set [2], the LD50 at 168 h was 607 mg/kg. Further, the ED (100% increase in survival time) in data set [3] was found to be 1.8 mg/kg.
Take `CCC12CCCN3CCc4c(n(c5ccccc45)C(C(=O)NC4CC4)C1)C32` (stereo not shown) [SLD 105, N-cyclopropyldesoxyvincaminamide]: the water solubility result in data set [1] is given as “water-insoluble”. In addition, the “resorption by the digestive tract” value in data set [4] (inferred from oral/intravenous LD50 ratio) was “good”. Moreover, the “ratio of the LD50 for oral administration to the LD50 for intravenous administration” value in data set [4] (mice, oral/intravenous) was “low”. The LD50 in data set [2] (setting [5]) was 165 mg/kg; in data set [2] (setting [6]) it was 76 mg/kg. This compound gave an LD50 at 168 h in data set [2] of 290 mg/kg. In addition, the ED (100% increase in survival time) in data set [3] was 1 mg/kg.
In the case of `CCC12C=C(C(=O)NC3CC3)n3c4c(c5ccccc53)CCN(CCC1)C42` (stereo not shown) [SLD 121, N-monocyclopropylapovincaminamide], the ED (100% increase in survival time) in data set [3] came to 2.5 mg/kg.
As for `CCC12CCCN3CCc4c(n(c5ccccc45)C(C(=O)NC4CCC4)C1)C32` (stereo not shown) [SLD 142, N-cyclobutyldesoxyvincaminamide], the ED (100% increase in survival time) in data set [3] amounted to 0.5 mg/kg.
In the case of `CC[C@]12CCCN3CCc4c(n(c5ccccc45)[C@@](O)(C(=O)OC)C1)[C@@H]32` [Vincamine, reference compound], the LD50 in data set [2] (setting [6]) worked out at 75 mg/kg. Further, the ED (100% increase in survival time) in data set [3] turned out to be 8 mg/kg.
